Patent US6583180B2, “Glucocorticoid receptor modulators” (Abbott Laboratories, priority 2001, dated 2003)

Biological target: T1, Human glucocorticoid receptors (Homo sapiens, UniProt P04150)
T1 construct: made in house; host or cells: Sf9 insect cells, recombinant baculovirus (BAC-TO-BAC)
T1 sequence (P04150 1-777): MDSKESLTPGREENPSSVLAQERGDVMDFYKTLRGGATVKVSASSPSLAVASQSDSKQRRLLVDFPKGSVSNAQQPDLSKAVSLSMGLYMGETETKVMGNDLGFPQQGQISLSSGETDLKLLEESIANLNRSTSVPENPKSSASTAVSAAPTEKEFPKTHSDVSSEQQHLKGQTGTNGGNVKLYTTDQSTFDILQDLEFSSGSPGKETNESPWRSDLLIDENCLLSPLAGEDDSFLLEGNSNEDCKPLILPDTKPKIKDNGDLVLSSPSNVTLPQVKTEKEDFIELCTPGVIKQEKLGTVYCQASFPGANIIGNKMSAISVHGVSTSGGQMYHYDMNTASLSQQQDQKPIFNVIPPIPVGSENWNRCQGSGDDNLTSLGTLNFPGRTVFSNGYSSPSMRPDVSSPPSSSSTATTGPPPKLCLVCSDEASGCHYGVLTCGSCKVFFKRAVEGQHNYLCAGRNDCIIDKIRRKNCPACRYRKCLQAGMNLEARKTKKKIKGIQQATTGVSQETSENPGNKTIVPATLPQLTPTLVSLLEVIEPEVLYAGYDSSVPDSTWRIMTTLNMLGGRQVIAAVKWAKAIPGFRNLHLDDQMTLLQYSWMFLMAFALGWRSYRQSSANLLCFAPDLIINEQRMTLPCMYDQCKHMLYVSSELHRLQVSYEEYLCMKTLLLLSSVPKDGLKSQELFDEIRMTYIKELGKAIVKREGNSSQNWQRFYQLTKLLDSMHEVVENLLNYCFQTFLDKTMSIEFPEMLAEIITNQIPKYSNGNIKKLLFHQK
Assay: Radioligand filter binding assay, displacement of 3[H]-dexamethasone from hGR
Settings: read-out: GR Binding (% Inhibition at 1.7 μM)
How it was run: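 Recombinant hGR extract from baculovirus-infected Sf9 cells (final ~1 nM receptor) incubated with ³H-dexamethasone and test compound dilutions in duplicate, EDTA/phosphate pH 8 buffer with MTG, overnight (15-20 h) at +4° C. Bound label collected on PEI-treated GF/B filters and scintillation-counted; IC50 from four-parameter fit of corrected cpm.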

SMILES | inhibition at 1.7 µM
CCOC(=O)COc1cc(Oc2ccc(CN(Cc3ccc(F)cc3F)c3cccc(NS(C)(=O)=O)c3C)cc2)ccc1Cl [Example 241, ethyl (2-chloro-5-{4-[((2,4-difluorobenzyl){2-methyl-3-[(methylsulfonyl)amino]phenyl}amino)methyl]phenoxy}phenoxy)acetate] | 90.6%
Cc1c(NS(C)(=O)=O)cccc1N(Cc1ccc(Oc2ccc(Cl)c(OCC(=O)O)c2)cc1)Cc1ccc(F)cc1Cl [Example 311, (2-chloro-5-(4-(((2-chloro-4-fluorobenzyl)(2-methyl-3-((methylsulfonyl)amino)phenyl)amino)methyl)phenoxy)phenoxy)acetic acid] | 97.4%
Cc1c(NS(C)(=O)=O)cccc1N(Cc1ccccc1)Cc1ccc(C(=O)c2cccc(OCCc3ccccc3)c2)cc1 [Example 246, N-[3-(benzyl{4-[3-(2-phenylethoxy)benzoyl]benzyl}amino)-2-methylphenyl]methanesulfonamide] | 88.6%
Cc1c(NS(C)(=O)=O)cccc1N(Cc1ccc(Oc2ccc(Cl)c(OCC(=O)O)c2)cc1)Cc1ccc(Cl)cc1F [Example 310, (2-chloro-5-(4-(((4-chloro-2-fluorobenzyl)(2-methyl-3-((methylsulfonyl)amino)phenyl)amino)methyl)phenoxy)phenoxy)acetic acid] | 97.5%
Cc1c(NS(C)(=O)=O)cccc1N(Cc1ccccc1)Cc1ccc(Oc2ccc(OCCCC(=O)NCC(=O)O)cc2)cc1 [Example 251, N-[4-(4-{4-[(benzyl{2-methyl-3-[(methylsulfonyl)amino]phenyl}amino)methyl]phenoxy}phenoxy)butanoyl]glycine] | 94.2%
Cc1c(NS(C)(=O)=O)cccc1N(Cc1ccccc1)Cc1ccc(C(=O)c2cccc(OCC3CCCO3)c2)cc1 (stereo not drawn) [Example 244, N-[3-(benzyl{4-[3-(tetrahydrofuran-2-ylmethoxy)benzoyl]benzyl}amino)-2-methylphenyl]methanesulfonamide] | 95.3%
Cc1c(NS(C)(=O)=O)cccc1N(Cc1ccccc1)Cc1ccc(Oc2ccc(OCCCCC(=O)N[C@@H](CO)C(=O)O)cc2)cc1 [Example 269, N-[5-(4-{4-[(benzyl{2-methyl-3-[(methylsulfonyl)amino]phenyl}amino)methyl]phenoxy}phenoxy)pentanoyl]-L-serine] | 90.7%
Cc1c(NS(C)(=O)=O)cccc1N(Cc1ccc(Oc2cccc(OC[C@@H]3C[C@@H](O)CC(=O)O3)c2)cc1)Cc1ccc(F)cc1F [Example 231, N-(3-((2,4-difluorobenzyl)(4-(3-(((2S,4R)-6-oxo-4-hydroxytetrahydro-2H-pyran-2-yl)methoxy)phenoxy)benzyl)amino)-2-methylphenyl)methanesulfonamide] | 96%
CCCCCCc1ccc(Oc2ccc(CN(Cc3ccc(F)cc3F)c3cccc(NS(C)(=O)=O)c3C)cc2)cc1OCC(=O)O [Example 238, (5-{4-[((2,4-difluorobenzyl){2-methyl-3-[(methylsulfonyl)amino]phenyl}amino)methyl]phenoxy}-2-hexylphenoxy)acetic acid] | 94.2%
Cc1c(NS(C)(=O)=O)cccc1N(Cc1ccc(Oc2ccc(Cl)c(OCC(=O)NCCC(=O)O)c2)cc1)Cc1ccc(F)cc1F [Example 317, N-((2-chloro-5-(4-(((2,4-difluorobenzyl)(2-methyl-3-((methylsulfonyl)amino)phenyl)amino)methyl)phenoxy)phenoxy)acetyl)-beta-alanine] | 96.5%
COC(=O)NCCOc1cccc(Oc2ccc(CN(Cc3ccccc3)c3cccc(NS(C)(=O)=O)c3C)cc2)c1 [Example 82, methyl 2-(3-{4-[(benzyl{2-methyl-3-[(methylsulfonyl)amino]phenyl}amino)methyl]phenoxy}phenoxy)ethylcarbamate] | 96.9%
Cc1c(NS(C)(=O)=O)cccc1N(Cc1ccccc1Br)C(C#N)c1ccccc1 (stereo not drawn) [Example 37, N-(3-{(2-bromobenzyl)[cyano(phenyl)methyl]amino}-2-methylphenyl)methanesulfonamide] | 72.5%
